{
  "source": "patent US4127572A",
  "about": "“Method of using 2(1H)-quinazolinethiones” (The Dow Chemical Company, priority 1978, dated 1978)",
  "key": {"reserpine-induced ptosis": {"tested_on": "reserpine-induced ptosis", "experiment": "Protection against reserpine-induced ptosis in mice", "assay_type": "in vivo", "details": "60 mg/kg intraperitoneal, 30 minutes before 2.5 mg/kg reserpine subcutaneous, graded after 45 minutes", "description": "A similar group of mice serving as controls were injected only with the carrier. After 30 minutes, both groups of mice were injected subcutaneously with 2.5 mg/kg of reserpine. […] Animals injected with the benzotriazepine compound were graded after 45 minutes on the following basis: no ptosis = 0, partial ptosis = 1, complete ptosis = 2."}, "[1]": {"tested_on": "norepinephrine uptake in synaptosome preparations", "experiment": "Uptake of norepinephrine in rat forebrain synaptosome preparations", "assay_type": "biochemical, rats", "details": "10 μg/ml, 37° C., rat forebrain synaptosomes, versus saline control; low values indicate activity", "description": "(§1) Antidepressant activity may also be illustrated in vitro by measuring the uptake of the neurotransmittors norepinephrine and serotonin in synaptosome preparations prepared from the forebrains of rats. The synaptosome preparation is incubated at 37° C. with radioactive neurotransmittor and the test compound at a concentration of 10 μg/ml. The synaptosome are isolated and the uptake of labelled neurotransmittor measured by liquid scintillation spectrometry using standard techniques. Percent inhibiton of uptake is determined by comparing the radioactivity taken in the synaptosome preparation with that of a similarly incubated saline control. Low values indicate activity."}, "[2]": {"tested_on": "serotonin uptake in synaptosome preparations", "experiment": "Uptake of serotonin in rat forebrain synaptosome preparations", "assay_type": "biochemical, rats", "details": "10 μg/ml, 37° C., rat forebrain synaptosomes, versus saline control; low values indicate activity", "description": "as §1"}, "[3]": {"tested_on": "stress induced rise of serum corticosteroid levels", "experiment": "Block of stress induced rise of serum corticosteroid levels in rats", "assay_type": "in vivo", "details": "10 mg/kg intraperitoneal, stressed male rats; values less than 1.0 indicative of activity", "description": "See British Medical Journal, 1971(2), p. 310-313. Corticosteroid levels were compared between stressed male rats pretreated with 10 mg/kg given by intraperitoneal injection to corticosteroid levels of stressed male rats pretreated with saline. The results were expressed as a ratio with values less than 1.0 indicative of activity. The compound 6-chloro-3,4-dihydro-4-hydroxy-3-(3-(4-morpholinyl)propyl)-4-phenyl-2(1H)- quinazolinethione (Example 12) gave a value of 0.12."}},
  "data": [
    {"molecule": "6-chloro-3-(3-dimethylamino)propyl-3,4-dihydro-4-hydroxy-4-phenyl-2(1H)-quinazolinethione [Example 7]", "values": [
      {"measurement": "sum of ptosis grades for the four test mice (no ptosis = 0, partial = 1, complete = 2; out of a possible 8)", "setting": "reserpine-induced ptosis; controls 8", "result": 4},
      {"measurement": "protection against reserpine-induced ptosis", "setting": "reserpine-induced ptosis; four mice", "result": 50, "unit": "%"}
    ]},
    {"molecule": "CCN(CC)CCN1C(=S)Nc2ccc(Cl)cc2C1(O)c1ccccc1", "note": "(centres unmarked) [Example 8]", "values": [
      {"measurement": "norepinephrine uptake relative to saline control", "setting": "[1]", "result": 3, "unit": "%"},
      {"measurement": "inhibition of seratonin uptake", "setting": "[2]", "result": 7, "unit": "%"}
    ]},
    {"molecule": "OC1(c2ccccc2)c2cc(Cl)ccc2NC(=S)N1CCCN1CCOCC1", "note": "(centres unmarked) [Example 12, 6-chloro-3,4-dihydro-4-hydroxy-3-(3-(4-morpholinyl)propyl)-4-phenyl-2(1H)-quinazolinethione]", "values": [
      {"measurement": "ratio of corticosteroid levels, stressed rats pretreated with compound to stressed rats pretreated with saline", "setting": "[3]", "result": 0.12}
    ]}
  ]
}
